# Measured values: patent US10676476B2, “Small-molecule HSP90 inhibitors” (Sloan-Kettering Institute for Cancer Research, priority 2005, dated 2020)
# Tests used:
# MDA-MB-468 cells = assay: Anti-mitotic assay (Tg-3 microtiter immunoassay); format: cell-based, human; details: MDA-MB-468 (Rb-defective) cells, 24 h
# Description: Anti-Mitotic Assay. Black, clear-bottom microtiter 96-well plates (Corning Costar#3603) were used to accommodate experimental cultures. MDA-MB-468 cells were seeded in each well at 8,000 cells per well in growth medium (100 μL), and allowed to attach overnight at 37° C. and 5% CO2. Growth medium (100 μL) with drug or vehicle (DMSO) was gently added to the wells, and the plates were incubated at 37° C. and 5% CO2 for 24 h. Wells were washed with ice-cold TBST (2×200 μL). A house vacuum source attached to an eight-channel aspirator was used to remove the liquid from the 96-well plates. Ice-cold methanol (100 μL) was added to each well, and the plate was placed at 4° C. for 5 min. Methanol was removed by suction and plates were washed with ice-cold TBST (2×200 μL). Plates were further incubated with SuperBlock® blocking buffer (Pierce #37535) (200 μL) for 2 h at RT. The Tg-3 antibody (gift of Dr. Davies, Albert Einstein College of Medicine) diluted 1:200 in SuperBlock® was placed in each well (100 μL) except the control column that was treated with control antibody (Mouse IgM, NeoMarkers, NC-1030-P). After 72 h, wells were washed with ice-cold TBST (2×200 μL). […] Un-reacted antibody was removed by washing the plates with ice-cold TBST (3×200 μL) for 5 min on a shaker. The ECL™ Western Blotting Detection Reagents 1 and 2 in 1:1 mix (100 μL) was placed in each well and the plates were read immediately in an Analyst AD plate reader (Molecular Devices). Luminescence readings were imported into SOFTmax PROR 4.3.1. Anti-mitotic activity was defined as a concentration dependent increase in luminescence readings in compound-treated wells as compared to DMSO only treated wells.
# Her2 in SKBr3 cells = assay: Her2 assay (microtiter immunoassay of Her2 degradation); format: cell-based, human; details: for Her2 degradation in SKBr3 cells: result in words; for IC50: Her2 degradation, SKBr3 cells, 24 h, average of 3 measurements
# Description: Her2 Assay. SKBr3 cells were plated in black, clear-bottom microtiter plates (Corning#3603) at 3,000 cells/well in growth medium (100 μl) and allowed to attach for 24 h at 37° C. and 5% CO2. Growth medium (100 μl) with drug or vehicle (DMSO) was carefully added to the wells, and the plates were placed at 37° C. and 5% CO2. Following 24 h incubation with drugs, wells were washed with ice-cold Tris buffer saline (TBS) containing 0.1% Tween 20 (TBST) (200 μl). A house vacuum source attached to an eight-channel aspirator was used to remove the liquid from the plates. Further, methanol (100 μl at −20° C.) was added to each well, and the plate was placed at 4° C. for 10 min. Methanol was removed by washing with TBST (2×200 μl). After further incubation at RT for 2 h with SUPERBLOCK® R (Pierce 37535) (200 μl), anti-Her-2 (c-erbB-2) antibody (Zymed Laboratories#28-004) (100 μl, 1:200 in SUPERBLOCK® R) was placed in each well. The plate was incubated overnight at 4° C. For control wells, 1:200 dilution of a normal rabbit IgG (Santa Cruz#SC-2027) in SUPERBLOCK® R was used. Each well was washed with TBST (2×200 μl) and incubated at RT for 2 h with an anti-rabbit HRP-linked antibody (Sigma, A-0545) (100 μl, 1:2000 in SuperBlockR). Unreacted antibody was removed by washing with TBST (3×200 μl), and the ECL™ Western blotting reagent (Amersham #RPN2106) (100 μL) was added. The plate was immediately read in an Analyst AD plate reader (Molecular Devices). Each well was scanned for 0.1 s. Readings from wells containing only control IgG and the corresponding HRP-linked secondary antibody were set as background and deducted from all measured values.
# [1] = tested on: SKBr3 breast cancer cells; assay: Growth inhibition, sulforhodamine B assay; format: cell-based, human; details: for Inhibition of growth in SKBr3 cells: result in words; for IC50: growth inhibition, 72 h, average of 3 measurements
# Description: (§1) Cell Culture. The human breast cancer cell lines SKBr3 and MDA-MB-468 were a gift from Dr. Neal Rosen (MSKCC). Cells were maintained in 1:1 mixture of DME:F12 supplemented with 2 mM glutamine, 50 units/mL penicillin, 50 […] and 10% heat inactivated fetal bovine serum (Gemini Bioproducts#100-10b) and incubated at 37° C., 5% CO2. Growth assays. Growth inhibition studies were performed using the sulforhodamine B assay as previously described.^29 In summary, experimental cultures were plated in microtiter plates (Nunc#167008). One column of wells was left without cells to serve as the blank control. Cells were allowed to attach overnight. The following day, growth medium having either drug or DMSO at twice the desired initial concentration was added to the plate in triplicate and was serially diluted at a 1:1 ratio in the microtiter plate. After 72 h of growth, the cell number in treated versus control wells was estimated after treatment with 50% trichloroacetic acid and staining with 0.4% sulforhodamine B in 1% acetic acid. […] Normal human renal proximal tubular epithelial (RPTEC) cells were purchased pre-seeded in 96-well plates (Clonetics, CC-3190). Upon receipt, cells were placed in a humidified incubator at 37° C., 5% CO2 and allowed to equilibrate for 3 h. Media was removed by suction and replaced with fresh media provided by the manufacturer. Cells were then treated with either drugs or DMSO for 72 h and the IC50 values were determined as described above.
# [2] = tested on: Hsp90 complexes found in normal brain tissue; assay: Hsp90 competition assay, brain homogenate; format: binding, mouse; details: ratio of EC50 values
# Description: (§4) When using cell lysates instead of recombinant protein, the assay measures binding to average. Hsp90 population found in cell specific complexes.
# (§5) Hsp90 Competition Assay.Fluorescence polarization measurements were performed on an ANALYST® AD instrument (Molecular Devices, Sunnyvale, Calif.). […] The assay buffer (HFB) contained 20 mM HEPES (K) pH 7.3, 50 mM KCl, 5 mM MgCl2, 20 mM Na2MoO4, 0.01% NP40. Before each use, 0.1 mg/mL bovine gamma globulin (BGG) (Panvera Corporation, Madison, Wis.) and 2 mM DTT (Fisher Biotech, Fair Lawn, N.J.) were freshly added. […] Cell lysates were prepared rupturing cellular membranes by freezing at −70° C. and dissolving the cellular extract in HFB with added protease and phosphotase inhibitors. Organs were harvested from a healthy mouse and homogenized in HFB. Saturation curves were recorded in which GM-BODIPY (5 nM) was treated with increasing amounts of cellular lysates.
# Hsp90 from SKBr3 cells = assay: Hsp90 competition assay, SKBr3 cell lysate; format: binding, human
# Description: as §4, §5
# [3] = tested on: renal proximal tubular epithelial cells (RPTEC); assay: Cytotoxicity against normal RPTEC cells; format: cell-based, human; details: ratio of growth IC50 values
# Description: as §1, with “Cells were then treated with either drugs or DMSO for 72 h and the IC50 values were determined as described above.” left out
# [4] = tested on: small cell lung cancer cell lines; assay: Apoptosis and cell death in SCLC cell lines; format: cell-based; details: each of the SCLC cell lines
# [5] = tested on: Hsp90 complexes found in normal lung tissue; assay: Hsp90 competition assay, lung homogenate; format: binding, mouse; details: ratio of EC50 values
# Description: as §4, §5
# [6] = tested on: Hsp90 complexes found in normal heart tissue; assay: Hsp90 competition assay, heart homogenate; format: binding, mouse; details: ratio of EC50 values
# Description: as §4, §5
# cancer cells = assay: Potency against cancer cells; format: cell-based
# Description: (§2) Growth over 96 h was assessed.
# H69AR = assay: Growth over 96 h, resistant SCLC line; format: cell-based; details: SCLC cell line resistant to adriamycin
# Description: as §2
# SKI-Chen = assay: Growth over 96 h, resistant SCLC line; format: cell-based, human; details: line from a patient who failed every conventional therapy
# Description: as §2
# [7] = tested on: SCLC cells highly resistant to conventional chemotherapy; assay: Growth inhibition and cell death, FIG. 8; format: cell-based; details: FIG. 8, growth over 96 h
# Description: as §2
# small cell lung tumors = assay: Pharmacodynamics and anti-cancer activity in a model of small cell lung cancer; format: in vivo
# [8] = Blood brain barrier penetration
# [9] = tested on: MRC5 normal lung fibroblasts; assay: Selectivity SKBr3 versus MRC5 normal cells; format: cell-based
# [10] = Tumor and plasma concentration in MDA-MB-468 xenografted mice; format: in vivo; details: 24 hours after intraperitoneal injection
# Description: (§3) Mice xenografted with MDA-MB-468 human breast cancer tumors were treated by intraperitoneal injection with Compound 5 at a dosage levels of 25, 50, 75, 100 and 150 mg/kg. The concentration of Compound 5 in the tumor 24 hours after administration was determined. […] Compound 5 was further tested for its effects on the pharmacodynamic marker Raf-1 kinase.
# Raf-1 kinase = assay: Pharmacodynamic marker in MDA-MB-468 xenograft tumors; format: in vivo, mice
# Description: as §3
# Hsp90 stabilizes this kinase and maintains it in ready-to-be-activated conformation. Inhibition of Hsp90 leads to disruption of the complex and further ubiquitinylation and degradation of Raf-1 by the proteasome. Thus, Raf-1 degradation in tumors is a functional read-out of Hsp90 inhibition.
compound,measurement,setting,value
"C#CCCCn1c(Cc2cc(OC)c(OC)cc2Br)nc2c(N)nc(F)nc21 [Example 13, 2-Fluoro-8-(2-bromo-4,5-dimethoxy-benzyl)-9-(pent-4-ynyl)adenine]",Anti-mitotic,MDA-MB-468 cells,No
"C#CCCCn1c(Sc2cc3c(cc2Br)OCO3)nc2c(N)ncnc21 [Example 1, 9-(Pent-4-ynyl)-8-(6-bromo-benzo[1,3]dioxol-5-ylsulfanyl)adenine]",Her2 degradation in SKBr3 cells,Her2 in SKBr3 cells,induced Her2 degradation
same,Inhibition of growth in SKBr3 cells,[1],inhibition of growth
same,Anti-mitotic,MDA-MB-468 cells,exhibited anti-mitotic activity and Yes
same,Brain/SKBr3,[2],2000
same,"Selectivity for tumor cells as opposed to normal heart, brain or lung tissue",Hsp90 from SKBr3 cells,very high selectivity
same,RPTEC/SKBr3,[3],20.5
same,Induction of apoptosis in SCLC cell lines,[4],induced apoptosis
"C#CCCCn1c(Cc2cc3c(cc2Br)OCO3)nc2c(N)nc(F)nc21 [Example 6, 2-Fluoro-8-(6-bromo-benzo[1,3]dioxol-5-ylmethyl)-9-(pent-4-ynyl)adenine]",Anti-mitotic,MDA-MB-468 cells,Yes
"C#CCCCn1c(Cc2cc3c(cc2Cl)OCO3)nc2c(N)nc(F)nc21 [Example 7, 2-Fluoro-8-(6-chloro-benzo[1,3]dioxol-5-ylmethyl)-9-(pent-4-ynyl)adenine]",Anti-mitotic,MDA-MB-468 cells,Yes
"CC(C)NCCCn1c(Sc2cc3c(cc2I)OCO3)nc2c(N)ncnc21 [Example 9, 8-(6-Iodo-benzo[1,3]dioxol-5-ylsulfanyl)-9-(3-isopropylamino-propyl)adenine]",IC50,"Her2 in SKBr3 cells; Homo sapiens, SK-BR-3",100 ± 10 nM
same,IC50,"[1]; Homo sapiens, SK-BR-3",90 ± 2 nM
same,Anti-mitotic,MDA-MB-468 cells,Yes
same,Lung/SKBr3,[5],48
same,Heart/SKBr3,[6],140
same,Potency against cancer cells,cancer cells,low nanomolar potency
same,Activity in H69AR,H69AR,retains its activity
same,Activity in SKI-Chen,SKI-Chen,retains its activity
same,Effective concentration lower than PU24FC1,[7],about 20 times
same,Tumor growth inhibition,small cell lung tumors; comparable to 17AAG,efficiently inhibited the growth of this tumor
same,Apoptosis of the tumor (PARP cleavage),small cell lung tumors; in vivo,induces significant apoptosis of the tumor
same,Duration of downregulation of Hsp90 client proteins in tumor,small cell lung tumors; in vivo,more than 36 h
same,Toxicity to the host,small cell lung tumors; in vivo,without toxicity to the host
same,Raf-1 and Akt in tumor,small cell lung tumors; one administered dose,efficiently degraded or inactivated
same,Blood brain barrier penetration,[8],ability to cross the blood brain barrier
"C#CCCCn1c(Cc2cc(OC)c(OC)cc2Cl)nc2c(N)nc(F)nc21 [Example 14, 2-Fluoro-8-(2-chloro-4,5-dimethoxy-benzyl)-9-(pent-4-ynyl)adenine]",Anti-mitotic,MDA-MB-468 cells,No
"C#CCCCn1c(Sc2cc3c(cc2I)OCO3)nc2c(N)ncnc21 [Example 10, 8-(6-Iodo-benzo[1,3]dioxol-5-ylsulfanyl)-9-(pent-4-ynyl)adenine]",Heart/SKBr3,[6],370
same,Selectivity between SKBr3 cells and MRC5 normal lung fibroblasts,[9],Selectivity was also observed
"C#CCCCn1c(Cc2cc(OC)c(OC)cc2I)nc2c(N)nc(F)nc21 [Example 12, 2-Fluoro-8-(2-iodo-4,5-dimethoxy-benzyl)-9-(pent-4-ynyl)adenine]",Anti-mitotic,MDA-MB-468 cells,No
"COc1cc(Sc2nc3c(N)ncnc3n2CCOC(C)C)c(Cl)cc1Cl [Example 3, 9-(2-Isopropoxy-ethyl)-8-(2,4-dichloro-5-methoxy-benzenesulfanyl)adenine]",Anti-mitotic,MDA-MB-468 cells,No
"Nc1ncnc2nc(Sc3cc(Cl)c(Cl)cc3Cl)[nH]c12 [Example 4, 8-(2,4,5-Trichloro-phenylsulfanyl)adenine]",Anti-mitotic,MDA-MB-468 cells,Yes
"CC(C)NCCCn1c(Sc2cc3c(cc2Br)OCO3)nc2c(N)ncnc21 [Example 5, 8-(6-Bromo-benzo[1,3]dioxol-5-ylsulfanyl)-9-(3-isopropylamino-propyl)adenine]",Anti-mitotic,MDA-MB-468 cells,Yes
same,Concentration in plasma,[10],could not be detected
same,Raf-1 protein levels in tumor,Raf-1 kinase; all dosage levels,substantial decrease in Raf-1 levels
same,Expression of PD kinase,Raf-1 kinase; protein unaffected by Hsp90 inhibitors,no change in expression
"9-(Pent-4-ynyl)-8-(2,4,5-trichloro-phenylsulfanyl)adenine [Example 2]",IC50,Her2 in SKBr3 cells,58000 ± 1400 nM
same,IC50,Her2 in SKBr3 cells; listed as Comp 2,1300 ± 400 nM
same,Her2 degradation in SKBr3 cells,Her2 in SKBr3 cells,induced Her2 degradation
same,IC50,[1],48400 ± 2500 nM
same,IC50,[1]; listed as Comp 2,1800 ± 200 nM
same,Inhibition of growth in SKBr3 cells,[1],inhibition of growth
same,Anti-mitotic,MDA-MB-468 cells,No
same,Anti-mitotic,MDA-MB-468 cells; listed as Comp 2,exhibited anti-mitotic activity and Yes
same,Lung/SKBr3,[5],2400
same,Heart/SKBr3,[6],590
"C#CCCCn1c(Cc2cc3c(cc2I)OCO3)nc2c(N)nc(F)nc21 [Example 11, 2-Fluoro-8-(6-iodo-benzo[1,3]dioxol-5-ylmethyl)-9-(pent-4-ynyl)adenine]",Anti-mitotic,MDA-MB-468 cells,Yes
"CC(C)NCCCn1c(Cc2cc3c(cc2I)OCO3)nc2c(N)nc(F)nc21 [Example 8, 2-Fluoro-8-(6-iodo-benzo[1,3]dioxol-5-ylmethyl)-9-(3-isopropylamino-propyl) adenine]",Anti-mitotic,MDA-MB-468 cells,Yes
same,Potency against cancer cells,cancer cells,low nanomolar potency
